In PubChem BioAssay AID1963421 (Molecular Pharmacology Branch, DTP, NCI, 2024):
“And” between values parts separate entries of the source, which are not always exact repeats. Equal values may be shown once. Values belong to the molecule of their own block, whether it stands above or below them.

System: 519858-162-T-J1-PDC complex spheroid growth, % test/control
Assay: Anticancer human tumor 519858-162-T-J1-PDC patient-derived colon adenocarcinoma cell line growth inhibition [Asc]
Conditions: for viability, T/C: stronger effect = lower value
Method in brief: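 Complex spheroids combining tumor cells with HUVEC endothelial cells and human MSCs, at 37 degrees C, 5% CO2; agents tested alone or combined, half-log dilutions from at or near clinical Cmax, or 10 microM if Cmax unknown.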

[1] = curve of first compound, second compound 0.00949 µM
[2] = curve of first compound, second compound 0.03 µM
[3] = curve of first compound, second compound 0.0949 µM
[4] = curve of first compound, second compound 0.3 µM
[5] = curve of first compound, second compound 0.949 µM
[6] = curve of first compound, second compound 3 µM
[7] = second compound 0.00949 µM, first compound 0.00316 µM
[8] = second compound 0.00949 µM, first compound 0.01 µM
[9] = second compound 0.00949 µM, first compound 0.0316 µM
[10] = second compound 0.00949 µM, first compound 0.1 µM
[11] = second compound 0.00949 µM, first compound 0.316 µM
[12] = second compound 0.00949 µM, first compound 1 µM
[13] = second compound 0.03 µM, first compound 0.00316 µM
[14] = second compound 0.03 µM, first compound 0.01 µM
[15] = second compound 0.03 µM, first compound 0.0316 µM
[16] = second compound 0.03 µM, first compound 0.1 µM
[17] = second compound 0.03 µM, first compound 0.316 µM
[18] = second compound 0.03 µM, first compound 1 µM
[19] = second compound 0.0949 µM, first compound 0.00316 µM
[20] = second compound 0.0949 µM, first compound 0.01 µM
[21] = second compound 0.0949 µM, first compound 0.0316 µM
[22] = second compound 0.0949 µM, first compound 0.1 µM
[23] = second compound 0.0949 µM, first compound 0.316 µM
[24] = second compound 0.0949 µM, first compound 1 µM
[25] = second compound 0.3 µM, first compound 0.00316 µM
[26] = second compound 0.3 µM, first compound 0.01 µM
[27] = second compound 0.3 µM, first compound 0.0316 µM
[28] = second compound 0.3 µM, first compound 0.1 µM
[29] = second compound 0.3 µM, first compound 0.316 µM
[30] = second compound 0.3 µM, first compound 1 µM
[31] = second compound 0.949 µM, first compound 0.00316 µM
[32] = second compound 0.949 µM, first compound 0.01 µM
[33] = second compound 0.949 µM, first compound 0.0316 µM
[34] = second compound 0.949 µM, first compound 0.1 µM
[35] = second compound 0.949 µM, first compound 0.316 µM
[36] = second compound 0.949 µM, first compound 1 µM
[37] = second compound 3 µM, first compound 0.00316 µM
[38] = second compound 3 µM, first compound 0.01 µM
[39] = second compound 3 µM, first compound 0.0316 µM
[40] = second compound 3 µM, first compound 0.1 µM
[41] = second compound 3 µM, first compound 0.316 µM
[42] = second compound 3 µM, first compound 1 µM
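Further: seven day drug exposure begun three days after spheroid seeding.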
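Wherever viability, T/C is given: 100% = DMSO vehicle wells and lower values mean less viable spheroid.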

Compound: O=C(c1ccc(F)c(F)c1Nc1ccc(I)cc1F)N1CC(O)([C@@H]2CCCCN2)C1 + CCN1C(C(=O)NC23CCC(C(=O)O)(CC2)CC3)C(c2cccc(Cl)c2F)C2(C(=O)Nc3cc(Cl)ccc32)C12CCCCC2
IC50 [1]: 213 nM
IC50 [2]: 130 nM
IC50 [3]: 211 nM
IC50 [4]: 250 nM
IC50 [5]: 246 nM
IC50 [6]: 167 nM
viability, T/C [7]: 57.3%
viability, T/C [8]: 86.8%
viability, T/C [9]: 88.8%
viability, T/C [10]: 116%
viability, T/C [11]: 30.6%
viability, T/C [12]: 19.1%
viability, T/C [13]: 126%
viability, T/C [14]: 91.1%
viability, T/C [15]: 93.1%
viability, T/C [16]: 56%
viability, T/C [17]: 42.5%
viability, T/C [18]: 17.6%
viability, T/C [19]: 105%
viability, T/C [20]: 115%
viability, T/C [21]: 64.8%
viability, T/C [22]: 79.9%
viability, T/C [23]: 36.1%
viability, T/C [24]: 15.5%
viability, T/C [25]: 90.5%
viability, T/C [26]: 90%
viability, T/C [27]: 66.1%
viability, T/C [28]: 91.8%
viability, T/C [29]: 41.1%
viability, T/C [30]: 17.2%
viability, T/C [31]: 81%
viability, T/C [32]: 64%
viability, T/C [33]: 73%
viability, T/C [34]: 70.1%
viability, T/C [35]: 44.3%
viability, T/C [36]: 21.9%
viability, T/C [37]: 68.4%
viability, T/C [38]: 104%
viability, T/C [39]: 46.3%
viability, T/C [40]: 65.7%
viability, T/C [41]: 39.5%
viability, T/C [42]: 14.3%

Compound: Cc1c(S(C)(=O)=O)c(-c2cc(F)cc(N3CCN(c4ccc(NS(=O)(=O)c5ccc(NC(CCN6CCC(C(=O)OCCCP(=O)(O)O)CC6)CSc6ccccc6)c(S(=O)(=O)C(F)(F)F)c5)cc4)CC3)c2)c(-c2ccc(Cl)cc2)n1C(C)C (stereo not drawn)
viability, T/C (compound 0.0316 µM): 89.8% [middle of 7 runs]
viability, T/C (compound 1 µM): 95.1% [middle of 7 runs]
IC50 (compound alone, run of 11/07/2022): > 10000 nM

Compound: NC(=O)C(=Cn1cnc(-c2cc(C(F)(F)F)cc(C(F)(F)F)c2)n1)c1cncnc1 + Cc1c(S(C)(=O)=O)c(-c2cc(F)cc(N3CCN(c4ccc(NS(=O)(=O)c5ccc(NC(CCN6CCC(C(=O)OCCCP(=O)(O)O)CC6)CSc6ccccc6)c(S(=O)(=O)C(F)(F)F)c5)cc4)CC3)c2)c(-c2ccc(Cl)cc2)n1C(C)C
IC50 (curve of first compound, second compound 0.0316 µM): > 300 nM
IC50 (curve of first compound, second compound 0.1 µM): > 300 nM
IC50 (curve of first compound, second compound 0.316 µM): > 300 nM
IC50 (curve of first compound, second compound 1 µM): > 300 nM
IC50 (curve of first compound, second compound 3.16 µM): > 300 nM
IC50 (curve of first compound, second compound 10 µM): > 300 nM
viability, T/C (second compound 0.0316 µM, first compound 0.000949 µM): 113%
viability, T/C (second compound 0.0316 µM, first compound 0.003 µM): 101%
viability, T/C (second compound 0.0316 µM, first compound 0.00949 µM): 87.4%
viability, T/C (second compound 0.0316 µM, first compound 0.03 µM): 66%
viability, T/C (second compound 0.0316 µM, first compound 0.0949 µM): 97.8%
viability, T/C (second compound 0.0316 µM, first compound 0.3 µM): 88.3%
viability, T/C (second compound 0.1 µM, first compound 0.000949 µM): 94.2%
viability, T/C (second compound 0.1 µM, first compound 0.003 µM): 89.1%
viability, T/C (second compound 0.1 µM, first compound 0.00949 µM): 93.7%
viability, T/C (second compound 0.1 µM, first compound 0.03 µM): 78.3%
viability, T/C (second compound 0.1 µM, first compound 0.0949 µM): 59.4%
viability, T/C (second compound 0.1 µM, first compound 0.3 µM): 98.2%
viability, T/C (second compound 0.316 µM, first compound 0.000949 µM): 97.4%
viability, T/C (second compound 0.316 µM, first compound 0.003 µM): 86%
viability, T/C (second compound 0.316 µM, first compound 0.00949 µM): 90.9%
viability, T/C (second compound 0.316 µM, first compound 0.03 µM): 60.7%
viability, T/C (second compound 0.316 µM, first compound 0.0949 µM): 82.7%
viability, T/C (second compound 0.316 µM, first compound 0.3 µM): 74.9%
viability, T/C (second compound 1 µM, first compound 0.000949 µM): 86.6%
viability, T/C (second compound 1 µM, first compound 0.003 µM): 122%
viability, T/C (second compound 1 µM, first compound 0.00949 µM): 65%
viability, T/C (second compound 1 µM, first compound 0.03 µM): 83.5%
viability, T/C (second compound 1 µM, first compound 0.0949 µM): 71.6%
viability, T/C (second compound 1 µM, first compound 0.3 µM): 71.5%
viability, T/C (second compound 3.16 µM, first compound 0.000949 µM): 79.8%
viability, T/C (second compound 3.16 µM, first compound 0.003 µM): 79.2%
viability, T/C (second compound 3.16 µM, first compound 0.00949 µM): 78.8%
viability, T/C (second compound 3.16 µM, first compound 0.03 µM): 50.3%
viability, T/C (second compound 3.16 µM, first compound 0.0949 µM): 54.6%
viability, T/C (second compound 3.16 µM, first compound 0.3 µM): 79.8%
viability, T/C (second compound 10 µM, first compound 0.000949 µM): 58.9%
viability, T/C (second compound 10 µM, first compound 0.003 µM): 59.7%
viability, T/C (second compound 10 µM, first compound 0.00949 µM): 71.2%
viability, T/C (second compound 10 µM, first compound 0.03 µM): 76.3%
viability, T/C (second compound 10 µM, first compound 0.0949 µM): 72.4%
viability, T/C (second compound 10 µM, first compound 0.3 µM): 60.1%

Continued, in another order:

IC50 (curve of compound): > 3000 nM and 2290 nM
Compound: Cc1nc(N2CCC3(CC2)COC(C)C3N)c(CO)nc1Sc1ccnc(N)c1Cl (stereo not drawn)
viability, T/C (compound 0.00949 µM): 94.3% and 68.7% and 97.6%
viability, T/C (compound 0.03 µM): 86.9% and 76% and 58.9%
viability, T/C (compound 0.0949 µM): 76.2% and 77.3% and 83.6%
viability, T/C (compound 0.3 µM): 76.3% and 77.2% and 97.4%
viability, T/C (compound 0.949 µM): 76.3% and 78.3% and 53%
viability, T/C (compound 3 µM): 70.9% and 57.7% and 49.1%

IC50 (curve of compound): > 10000 nM
Compound: C#Cc1c(F)ccc2cc(O)cc(-c3ncc4c(N5CC6CCC(C5)N6)nc(OCC56CCCN5CC(F)C6)nc4c3F)c12 (stereo not drawn)
viability, T/C (compound 0.0316 µM): 89.4% and 98.1% and 81.9%
viability, T/C (compound 0.1 µM): 126% and 101% and 93.3%
viability, T/C (compound 0.316 µM): 102% and 92.8% and 90.6%
viability, T/C (compound 1 µM): 88.3% and 89.3% and 83.3%
viability, T/C (compound 3.16 µM): 86.9% and 78.3% and 64.9%
viability, T/C (compound 10 µM): 68.7% and 66.2% and 72.1%

IC50 [1]: > 1000 nM
IC50 [2]: > 1000 nM
IC50 [3]: > 1000 nM
IC50 [4]: > 1000 nM
IC50 [5]: > 1000 nM
IC50 [6]: > 1000 nM
Compound: CCN1CCN(Cc2ccc(Nc3ncc(F)c(-c4cc(F)c5nc(C)n(C(C)C)c5c4)n3)nc2)CC1 + CCN1C(C(=O)NC23CCC(C(=O)O)(CC2)CC3)C(c2cccc(Cl)c2F)C2(C(=O)Nc3cc(Cl)ccc32)C12CCCCC2
viability, T/C [7]: 85.7%
viability, T/C [8]: 89.3%
viability, T/C [9]: 76.2%
viability, T/C [10]: 88.8%
viability, T/C [11]: 60.2%
viability, T/C [12]: 71%
viability, T/C [13]: 124%
viability, T/C [14]: 84.4%
viability, T/C [15]: 91.5%
viability, T/C [16]: 105%
viability, T/C [17]: 93.4%
viability, T/C [18]: 76.9%
viability, T/C [19]: 99.8%
viability, T/C [20]: 95.7%
viability, T/C [21]: 86.2%
viability, T/C [22]: 81.7%
viability, T/C [23]: 67.7%
viability, T/C [24]: 58.8%
viability, T/C [25]: 97.6%
viability, T/C [26]: 83.5%
viability, T/C [27]: 69.1%
viability, T/C [28]: 61.9%
viability, T/C [29]: 64.2%
viability, T/C [30]: 104%
viability, T/C [31]: 87.4%
viability, T/C [32]: 72.6%
viability, T/C [33]: 84.8%
viability, T/C [34]: 80.9%
viability, T/C [35]: 81.2%
viability, T/C [36]: 63%
viability, T/C [37]: 71.4%
viability, T/C [38]: 69.9%
viability, T/C [39]: 78.6%
viability, T/C [40]: 89.2%
viability, T/C [41]: 72.7%
viability, T/C [42]: 66.4%
